From US9018208B2, “Heterocycles as potassium channel modulators” (Icagen Inc., priority 2007, dated 2015)
Like-named read-outs stand apart in the source and are kept apart here.

Test system: SH-SY5Y M-currents (KCNQ2, KCNQ3 and KCNQ5)
Test: SH-SY5Y native cell line FLIPR assay (voltage-sensitive dye DiBAC)
Assay type: cell-based, mouse neuroblastoma, rat glioma hybrid cell line
Settings: SH-SY5Y native cell line, read-out: SH-SY5Y EC50
Summary of the method: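 Response is peak DiBAC fluorescence change, normalised to the maximum from a positive control agent, sampled every 30 s over 25 min. Before compound addition, SH-SY5Y cells differentiated with PGE1 plus isomethylbutylxanthine were dye-loaded for 1 h in EBSS with […] DiBAC.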

Structure (SMILES) | EC50 (FLIPR assay, Table 2) | further results
O=C(Nc1nc2ccc(F)cn2c1-c1ccc(OC(F)(F)F)cc1)C1Cc2ccccc2C1 [Compound 292, N-(6-fluoro-3-(4-(trifluoromethoxy)phenyl)imidazo[1,2-a]pyridin-2-yl)-2,3-dihydro-1H-indene-2-carboxamide] | 0.5 to 3 µM | –
O=C(Nc1nc2ccc(F)cn2c1-c1ccc(F)cc1)OCc1ccccc1 [Compound 146, benzyl 6-fluoro-3-(4-fluorophenyl)imidazo[1,2-a]pyridin-2-ylcarbamate] | < 0.5 µM | –
O=C(Cc1ccc(F)cc1F)Nc1nc2ccc(C(F)(F)F)cn2c1C1CC1 [Compound 79, N-(3-cyclopropyl-6-(trifluoromethyl)imidazo[1,2-a]pyridin-2-yl)-2-(2,4-difluorophenyl)acetamide] | – | EC50 (FLIPR assay, Table 1): 0.5 to 3 µM
O=C(Nc1nc2ccc(C(F)(F)F)cn2c1C1CC1)C1CC1(F)F (stereo not shown) [Compound 85, N-(3-cyclopropyl-6-(trifluoromethyl)imidazo[1,2-a]pyridin-2-yl)-2,2-difluorocyclopropanecarboxamide] | – | EC50 (FLIPR assay, Table 1): 0.5 to 3 µM
Cc1ccc2nc(NC(=O)Cc3ccc(C(F)(F)F)cc3)c(-c3ccc(F)cc3)n2c1 [Compound 186, N-(3-(4-fluorophenyl)-6-methylimidazo[1,2-a]pyridin-2-yl)-2-(4-(trifluoromethyl)phenyl)acetamide] | < 0.5 µM | –
O=C(Nc1nc2ccc(F)cn2c1-c1cc(C(F)(F)F)ccn1)C1CC1(F)F (stereo not shown) [Compound 412, 2,2-difluoro-N-(6-fluoro-3-(4-(trifluoromethyl)pyridin-2-yl)imidazo[1,2-a]pyridin-2-yl)cyclopropanecarboxamide] | – | EC50 (FLIPR assay (Table 3)): 3 to 10 µM
C=Cc1c(NC(=O)CC(F)(F)F)nc2cc(C(F)(F)F)ccn12 [Compound 427, 3,3,3-trifluoro-N-(7-(trifluoromethyl)-3-vinylimidazo[1,2-a]pyridin-2-yl)propanamide] | – | EC50 (FLIPR assay, Table 5): 3 to 10 µM
O=C(Cc1ccc(F)cc1)Nc1nc2cc(Cl)c(Cl)cn2c1-c1ccc(OC(F)(F)F)cc1 [Compound 217, N-(6,7-dichloro-3-(4-(trifluoromethoxy)phenyl)imidazo[1,2-a]pyridin-2-yl)-2-(4-fluorophenyl)acetamide] | 0.5 to 3 µM | –
O=C(Nc1nc2ccc(F)cn2c1-c1nccs1)C1CCC(F)(F)CC1 [Compound 391, 4,4-difluoro-N-(6-fluoro-3-(thiazol-2-yl)imidazo[1,2-a]pyridin-2-yl)cyclohexanecarboxamide] | – | EC50 (FLIPR assay (Table 3)): < 0.5 µM
CC(C)CCc1c(NC(=O)CC(C)(C)C(F)(F)F)nc2ccc(C(F)(F)F)cn12 [Compound 443, 4,4,4-trifluoro-N-(3-isopentyl-6-(trifluoromethyl)imidazo[1,2-a]pyridin-2-yl)-3,3-dimethylbutanamide] | – | EC50 (FLIPR assay (Table 6)): < 0.5 µM
CC(C)(C)CC(=O)Nc1nc2ccc(F)cn2c1-c1cc(F)cc(F)c1 [Compound 227, N-(3-(3,5-difluorophenyl)-6-fluoroimidazo[1,2-a]pyridin-2-yl)-3,3-dimethylbutanamide] | < 0.5 µM | –
CC(C)(C)CC(=O)Nc1nc2ccccn2c1-c1ccc(F)cc1 [Compound 221, N-(3(4-fluorophenyl)imidazo[1,2-a]pyridin-2-yl)-3,3-dimethylbutanamide] | 0.5 to 3 µM | –
CC(C)(CC(=O)Nc1nc2ccc(F)cn2c1CC1CCCCC1)C(F)(F)F [Compound 444, N-(3-(cyclohexylmethyl)-6-fluoroimidazo[1,2-a]pyridin-2-yl)-4,4,4-trifluoro-3,3-dimethylbutanamide] | – | EC50 (FLIPR assay (Table 6)): < 0.5 µM
O=C(Cc1cccc(Cl)c1)Nc1nc2ccc(C(F)(F)F)cn2c1CC1CCCCC1 [Compound 43, 2-(3-chlorophenyl)-N-(3-(cyclohexylmethyl)-6-(trifluoromethyl)imidazo[1,2-a]pyridin-2-yl)acetamide] | – | EC50 (FLIPR assay, Table 1): < 0.5 µM
CC(C)(C)CC(=O)Nc1nc2ccc(Br)cn2c1-c1ccc(F)cc1 [Compound 152, N-(6-bromo-3-(4-fluorophenyl)imidazo[1,2-a]pyridin-2-yl)-3,3-dimethyl butanamide] | < 0.5 µM | –
CC(C)(C)Cc1c(NC(=O)C2CCCCC2)nc2ccc(C(F)(F)F)cn12 [Compound 59, N-(3-neopentyl-6-(trifluoromethyl)imidazo[1,2-a]pyridin-2-yl)cyclohexanecarboxamide] | – | EC50 (FLIPR assay, Table 1): < 0.5 µM
CC(C)(C)OCC(=O)Nc1nc2ccc(F)cn2c1-c1ccc(OC(F)(F)F)cc1 [Compound 208, 2-tert-butoxy-N-(6-fluoro-3-(4-(trifluoromethoxy)phenyl)imidazo[1,2-a]pyridin-2-yl)acetamide] | 3 to 10 µM | –
CC(C)(C)CC(=O)Nc1nc2ncccn2c1-c1cccc(Cl)c1 [Compound 329, N-(3-(3-chlorophenyl)imidazo[1,2-a]pyrimidin-2-yl)-3,3-dimethylbutanamide] | 3 to 10 µM | –
O=C(Cc1cc(F)cc(F)c1)Nc1nc2ccc(C(F)(F)F)cn2c1C1CC1 [Compound 80, N-(3-cyclopropyl-6-(trifluoromethyl)imidazo[1,2-a]pyridin-2-yl)-2-(3,5-difluorophenyl)acetamide] | – | EC50 (FLIPR assay, Table 1): < 0.5 µM
O=C(CC1CCCC1)Nc1nc2ccccn2c1-c1ccc(F)cc1 [Compound 222, 2-cyclopentyl-N-(3-(4-fluorophenyl)imidazo[1,2-a]pyridin-2-yl)acetamide] | 0.5 to 3 µM | –
CC(C)(C)Cc1c(NC(=O)Cc2ccc(C(F)(F)F)cc2)nc2ccc(C(F)(F)F)cn12 [Compound 61, N-(3-neopentyl-6-(trifluoromethyl)imidazo[1,2-a]pyridin-2-yl)-2-(4-(trifluoromethyl)phenyl)acetamide] | – | EC50 (FLIPR assay, Table 1): < 0.5 µM
CC1(CC(=O)Nc2nc3ccc(C(F)(F)F)nn3c2C2CC2)CCCC1 [Compound 445, N-(3-cyclopropyl-6-(trifluoromethyl)imidazo[1,2-b]pyridazin-2-yl)-2-(1-methylcyclopentyl)acetamide] | – | EC50 (FLIPR assay (Table 6)): < 0.5 µM
CC(C)(CC(=O)Nc1nc2ccc(C(F)(F)F)cn2c1C1CCCC1)C(F)(F)F [Compound 442, N-(3-cyclopentyl-6-(trifluoromethyl)imidazo[1,2-a]pyridin-2-yl)-4,4,4-trifluoro-3,3-dimethylbutanamide] | – | EC50 (FLIPR assay (Table 6)): < 0.5 µM
O=C(Cc1ccc(Cl)cc1)Nc1nc2ccc(F)cn2c1-c1ccc(OC(F)(F)F)c(F)c1 [Compound 310, 2-(4-chlorophenyl)-N-(6-fluoro-3-(3-fluoro-4-(trifluoromethoxy)phenyl)imidazo[1,2-a]pyridin-2-yl)acetamide] | < 0.5 µM | –
COc1cccc(-c2c(NC(=O)CC(C)(C)C)nc3ccc(F)cn23)n1 [Compound 367, N-(6-fluoro-3-(6-methoxypyridin-2-yl)imidazo[1,2-a]pyridin-2-yl)-3,3-dimethylbutanamide] | – | EC50 (FLIPR assay (Table 3)): 0.5 to 3 µM
CC(C)(C)CC(=O)Nc1nc2ccc(F)cn2c1-c1ccc(F)c(F)c1 [Compound 212, N-(3-(3,4-difluorophenyl)-6-fluoroimidazo[1,2-a]pyridin-2-yl)-3,3-dimethylbutanamide] | < 0.5 µM | –
CC(C)(C)Cc1c(NC(=O)C2CC2)nc2ccc(C(F)(F)F)cn12 [Compound 64, N-(3-neopentyl-6-(trifluoromethyl)imidazo[1,2-a]pyridin-2-yl)cyclopropanecarboxamide] | – | EC50 (FLIPR assay, Table 1): 0.5 to 3 µM
CC(C)n1cc(-c2c(NC(=O)CC(C)(C)C)nc3ccc(F)cn23)cn1 [Compound 370, N-(6-fluoro-3-(1-isopropyl-1H-pyrazol-4-yl)imidazo[1,2-a]pyridin-2-yl)-3,3-dimethylbutanamide] | – | EC50 (FLIPR assay (Table 3)): 3 to 10 µM
Cc1ccc2nc(NC(=O)CC(C)C(F)(F)F)c(C3CC3)n2n1 (stereo not shown) [Compound 76, N-(3-cyclopropyl-6-methylimidazo[1,2-b]pyridazin-2-yl)-4,4,4-trifluoro-3-methylbutanamide] | – | EC50 (FLIPR assay, Table 1): 3 to 10 µM
C=Cc1c(NC(=O)Cc2ccc(F)cc2)nc2ccc(F)cn12 [Compound 425, N-(6-fluoro-3-vinylimidazo[1,2-a]pyridin-2-yl)-2-(4-fluorophenyl)acetamide] | – | EC50 (FLIPR assay, Table 5): 0.5 to 3 µM

Second part, led by results:

EC50 (FLIPR assay, Table 2) | Structure (SMILES) | further results
< 0.5 µM | CC(C)(C)CCC(=O)Nc1nc2ccc(F)cn2c1-c1ccc(C(F)(F)F)cc1 [Compound 188, N-(6-fluoro-3-(4-(trifluoromethyl)phenyl)imidazo[1,2-a]pyridin-2-yl)-4,4-dimethylpentanamide] | –
0.5 to 3 µM | O=C(CC(F)(F)F)Nc1nc2ccc(F)cn2c1-c1cccc(Cl)c1 [Compound 284, N-(3-(3-chlorophenyl)-6-fluoroimidazo[1,2-a]pyridin-2-yl)-3,3,3-trifluoropropanamide] | –
< 0.5 µM | O=C(CCCC(F)(F)F)Nc1nc2ccc(F)cn2c1-c1ccc(OC(F)(F)F)cc1 [Compound 174, 5,5,5-trifluoro-N-(6-fluoro-3-(4-(trifluoromethoxy)phenyl)imidazo[1,2-a]pyridin-2-yl)pentanamide] | –
< 0.5 µM | O=C(CC1CCC1)Nc1nc2ccc(F)cn2c1-c1ccc(C(F)(F)F)cc1 [Compound 185, 2-cyclobutyl-N-(6-fluoro-3-(4-(trifluoromethyl)phenyl)imidazo[1,2-a]pyridin-2-yl)acetamide] | –
< 0.5 µM | O=C(CC1CCC1)Nc1nc2ccc(F)cn2c1-c1cccc(C(F)(F)F)c1 [Compound 270, 2-cyclobutyl-N-(6-fluoro-3-(3-(trifluoromethyl)phenyl)imidazo[1,2-a]pyridin-2-yl)acetamide] | –
0.5 to 3 µM | COc1ccn2c(-c3ccc(C(F)(F)F)cc3)c(NC(=O)Cc3ccccc3)nc2c1 [Compound 246, N-(7-methoxy-3-(4-(trifluoromethyl)phenyl)imidazo[1,2-a]pyridin-2-yl)-2-phenylacetamide] | –
0.5 to 3 µM | CC(C(=O)Nc1nc2cc(C(F)(F)F)ccn2c1-c1ccc(F)cc1)c1ccccc1 (stereo not shown) [Compound 114, N-(3-(4-fluorophenyl)-7-(trifluoromethyl)imidazo[1,2-a]pyridin-2-yl)-2-phenylpropanamide] | –
